Usually MIC stands for the least concentration at which growth counts as inhibited.

Common to all, as to type: functional
The test system of one test is Morganella morganii. Description: Minimum inhibitory concentration (MIC) preventing growth of Morganella morganii.
The next test deals with Klebsiella pneumoniae. Description: Minimum inhibitory concentration (MIC)preventing growth of Klebsiella pneumoniae.
The next test relates to Enterobacter cloacae. Description: Minimum inhibitory concentration (MIC)preventing growth of Enterobacter cloacae.
In a further test the test system is Proteus vulgaris. Description: Minimum inhibitory concentration (MIC) preventing growth of Proteus vulgaris.
Test [1] deals with Staphylococcus epidermidis. Description: Minimum inhibitory concentration (MIC) preventing growth of Staphylococcus epidermidis.
A further test concerns Bacillus subtilis. Description: Minimum inhibitory concentration (MIC) preventing growth of Bacillus subtilis.
The test system of the next test is Bacillus cereus. Description: Minimum inhibitory concentration (MIC) preventing growth of Bacillus cereus.
The test system of another test is Escherichia coli. Description: Minimum inhibitory concentration (MIC)preventing growth of Escherichia coli.
The test system of the next test is Pseudomonas aeruginosa. Description: Minimum inhibitory concentration (MIC)preventing growth of Pseudomonas aeruginosa.
The subject of the next test is Enterococcus faecalis. Description: Minimum inhibitory concentration (MIC) preventing growth of Streptococcus faecalis ATCC 10541.
The subject of the next test is Staphylococcus aureus. Description: Minimum inhibitory concentration (MIC) preventing growth of […].

Values after ≈ are worked out from the molar mass of the structure shown.

For the compound `CC1(N)CN(c2c(F)cc3c(=O)c4c(=O)[nH]sc4n(C4CC4)c3c2F)C1`, the MIC came to 0.06 µg/mL (≈ 0.159 µM) in the test on Morganella morganii; 0.06 µg/mL (≈ 0.159 µM) against Klebsiella pneumoniae; 0.06 µg/mL (≈ 0.159 µM) in the test on Enterobacter cloacae; 0.12 µg/mL (≈ 0.317 µM) in the test on Proteus vulgaris; 0.06 µg/mL (≈ 0.159 µM) in test [1]; 0.03 µg/mL (≈ 0.0793 µM) against Bacillus subtilis. Further, the minimal inhibitory concentration (MIC) is 0.12 µg/mL (≈ 0.317 µM) with Bacillus cereus; 0.06 µg/mL (≈ 0.159 µM) against Escherichia coli; 0.5 µg/mL (≈ 1.32 µM) in the test on Pseudomonas aeruginosa; 0.5 µg/mL (≈ 1.32 µM) against Enterococcus faecalis; 0.12 µg/mL (≈ 0.317 µM) with Staphylococcus aureus.
As for `CN(C)C1CN(c2cc3c(cc2F)c(=O)c2c(=O)[nH]sc2n3C2CC2)C1`, the minimal inhibitory concentration (MIC) against Morganella morganii is 0.06 µg/mL (≈ 0.16 µM); in the test on Klebsiella pneumoniae, 0.06 µg/mL (≈ 0.16 µM); against Enterobacter cloacae it was 0.06 µg/mL (≈ 0.16 µM); against Proteus vulgaris, 0.06 µg/mL (≈ 0.16 µM); in [1], 0.06 µg/mL (≈ 0.16 µM); with Bacillus subtilis, 0.03 µg/mL (≈ 0.0801 µM). Further, the MIC against Bacillus cereus came out at 0.12 µg/mL (≈ 0.32 µM); with Escherichia coli, 0.03 µg/mL (≈ 0.0801 µM); in the test with Pseudomonas aeruginosa, 1 µg/mL (≈ 2.67 µM); against Enterococcus faecalis, 0.5 µg/mL (≈ 1.34 µM); with Staphylococcus aureus, 0.06 µg/mL (≈ 0.16 µM).
As for `CNC1CN(c2cc3c(cc2F)c(=O)c2c(=O)[nH]sc2n3C2CC2)C1`, the MIC against Morganella morganii was determined as 0.06 µg/mL (≈ 0.166 µM); in the test with Klebsiella pneumoniae it was 0.12 µg/mL (≈ 0.333 µM); in the test with Enterobacter cloacae, 0.12 µg/mL (≈ 0.333 µM); in the test with Proteus vulgaris, 0.12 µg/mL (≈ 0.333 µM); in [1] it was 0.12 µg/mL (≈ 0.333 µM); in the test on Bacillus subtilis, 0.03 µg/mL (≈ 0.0832 µM). Also, the minimum inhibitory concentration (MIC) with Bacillus cereus worked out at 0.12 µg/mL (≈ 0.333 µM); against Escherichia coli, 0.03 µg/mL (≈ 0.0832 µM); against Pseudomonas aeruginosa, 0.5 µg/mL (≈ 1.39 µM); against Enterococcus faecalis, 0.25 µg/mL (≈ 0.694 µM); with Staphylococcus aureus, 0.12 µg/mL (≈ 0.333 µM).
For the compound `CC1(N)CN(c2nc3c(cc2F)c(=O)c(C(=O)O)cn3CCF)C1`, the MIC came out at 0.12 µg/mL (≈ 0.355 µM) in the test with Morganella morganii; 0.06 µg/mL (≈ 0.177 µM) against Klebsiella pneumoniae; 0.12 µg/mL (≈ 0.355 µM) with Enterobacter cloacae; 1 µg/mL (≈ 2.96 µM) in the test with Proteus vulgaris; 0.5 µg/mL (≈ 1.48 µM) in test [1]; 0.12 µg/mL (≈ 0.355 µM) against Bacillus subtilis. In addition, the minimum inhibitory concentration (MIC) is 0.5 µg/mL (≈ 1.48 µM) with Bacillus cereus; 0.06 µg/mL (≈ 0.177 µM) with Escherichia coli; 2 µg/mL (≈ 5.91 µM) in the test with Pseudomonas aeruginosa; 2 µg/mL (≈ 5.91 µM) against Enterococcus faecalis; 0.5 µg/mL (≈ 1.48 µM) against Staphylococcus aureus.
With `CC1(N)CN(c2cc3c(cc2F)c(=O)c(C(=O)O)cn3CCF)C1`, the MIC against Morganella morganii was 0.5 µg/mL (≈ 1.48 µM); in the test on Klebsiella pneumoniae, 0.5 µg/mL (≈ 1.48 µM); in the test with Enterobacter cloacae, 1 µg/mL (≈ 2.96 µM); with Proteus vulgaris, 1 µg/mL (≈ 2.96 µM); in test [1] it was 1 µg/mL (≈ 2.96 µM); against Bacillus subtilis, 0.25 µg/mL (≈ 0.741 µM). Further, the minimal inhibitory concentration (MIC) came to 1 µg/mL (≈ 2.96 µM) against Bacillus cereus; 0.5 µg/mL (≈ 1.48 µM) against Escherichia coli; 4 µg/mL (≈ 11.9 µM) in the test with Pseudomonas aeruginosa; 2 µg/mL (≈ 5.93 µM) against Enterococcus faecalis; 1 µg/mL (≈ 2.96 µM) in the test on Staphylococcus aureus.
Regarding `CCNCC1(C)CN(c2c(F)cc3c(=O)c(C(=O)O)cn(C4CC4)c3c2F)C1`, the minimal inhibitory concentration (MIC) against Morganella morganii worked out at 0.25 µg/mL (≈ 0.639 µM); with Klebsiella pneumoniae, 0.25 µg/mL (≈ 0.639 µM); in the test on Enterobacter cloacae it was 0.25 µg/mL (≈ 0.639 µM); against Proteus vulgaris, 0.25 µg/mL (≈ 0.639 µM); in [1], 0.25 µg/mL (≈ 0.639 µM); against Bacillus subtilis, 0.12 µg/mL (≈ 0.307 µM). Also, the MIC against Bacillus cereus came out at 0.25 µg/mL (≈ 0.639 µM); against Escherichia coli, 0.25 µg/mL (≈ 0.639 µM); with Pseudomonas aeruginosa, 2 µg/mL (≈ 5.11 µM); in the test with Enterococcus faecalis, 1 µg/mL (≈ 2.55 µM); in the test with Staphylococcus aureus, 0.25 µg/mL (≈ 0.639 µM).
For the compound `CCC1(O)CN(c2c(F)cc3c(=O)c(C(=O)O)cn(C4CC4)c3c2F)C1`, the MIC was 0.5 µg/mL (≈ 1.37 µM) in the test on Morganella morganii; 0.12 µg/mL (≈ 0.329 µM) in the test on Klebsiella pneumoniae; 0.5 µg/mL (≈ 1.37 µM) against Enterobacter cloacae; 0.25 µg/mL (≈ 0.686 µM) against Proteus vulgaris; 0.25 µg/mL (≈ 0.686 µM) in test [1]; 0.06 µg/mL (≈ 0.165 µM) against Bacillus subtilis. The MIC in the test on Bacillus cereus was 0.5 µg/mL (≈ 1.37 µM); in the test on Escherichia coli, 0.25 µg/mL (≈ 0.686 µM); in the test on Pseudomonas aeruginosa, 2 µg/mL (≈ 5.49 µM); with Enterococcus faecalis it was 1 µg/mL (≈ 2.74 µM); with Staphylococcus aureus, 0.5 µg/mL (≈ 1.37 µM).
For `O=C(O)c1cn(C2CC2)c2c(F)c(N3CC(N4CCCC4)C3)c(F)cc2c1=O`, the MIC in the test on Morganella morganii turned out to be 0.12 µg/mL (≈ 0.308 µM); with Klebsiella pneumoniae, 0.12 µg/mL (≈ 0.308 µM); against Enterobacter cloacae, 0.06 µg/mL (≈ 0.154 µM); with Proteus vulgaris, 0.25 µg/mL (≈ 0.642 µM); in test [1], 0.12 µg/mL (≈ 0.308 µM); against Bacillus subtilis, 0.06 µg/mL (≈ 0.154 µM). The MIC amounted to 0.12 µg/mL (≈ 0.308 µM) with Bacillus cereus; 0.06 µg/mL (≈ 0.154 µM) in the test with Escherichia coli; 2 µg/mL (≈ 5.14 µM) in the test with Pseudomonas aeruginosa; 0.5 µg/mL (≈ 1.28 µM) in the test with Enterococcus faecalis; 0.12 µg/mL (≈ 0.308 µM) against Staphylococcus aureus.
`CC1(n2cccc2)CN(c2c(F)cc3c(=O)c(C(=O)O)cn(C4CC4)c3c2F)C1`: the MIC in the test with Morganella morganii worked out at 1 µg/mL (≈ 2.5 µM); in the test on Klebsiella pneumoniae, 0.25 µg/mL (≈ 0.626 µM); against Enterobacter cloacae it was 2 µg/mL (≈ 5.01 µM); against Proteus vulgaris, 1 µg/mL (≈ 2.5 µM); in [1] it was 0.25 µg/mL (≈ 0.626 µM); against Bacillus subtilis, 0.015 µg/mL (≈ 0.0376 µM). The MIC with Bacillus cereus was determined as 0.25 µg/mL (≈ 0.626 µM); with Escherichia coli it was 1 µg/mL (≈ 2.5 µM); against Pseudomonas aeruginosa it was 8 µg/mL (≈ 20 µM); in the test on Enterococcus faecalis, 2 µg/mL (≈ 5.01 µM); with Staphylococcus aureus, 0.25 µg/mL (≈ 0.626 µM).
For `CNC1(C)CN(c2cc3c(cc2F)c(=O)c2c(=O)[nH]sc2n3C2CC2)C1`, the minimum inhibitory concentration (MIC) against Morganella morganii is 0.06 µg/mL (≈ 0.16 µM); against Klebsiella pneumoniae, 0.03 µg/mL (≈ 0.0801 µM); in the test with Enterobacter cloacae it was 0.06 µg/mL (≈ 0.16 µM); against Proteus vulgaris, 0.12 µg/mL (≈ 0.32 µM); in [1] it was 0.06 µg/mL (≈ 0.16 µM); in the test with Bacillus subtilis, 0.03 µg/mL (≈ 0.0801 µM). Besides, the MIC came to 0.06 µg/mL (≈ 0.16 µM) against Bacillus cereus; 0.03 µg/mL (≈ 0.0801 µM) in the test on Escherichia coli; 0.5 µg/mL (≈ 1.34 µM) in the test with Pseudomonas aeruginosa; 0.06 µg/mL (≈ 0.16 µM) with Enterococcus faecalis; 0.06 µg/mL (≈ 0.16 µM) against Staphylococcus aureus.
